# Assay results from US8962596B2 (Array BioPharma Inc., priority 2010, dated 2015).
# Counter-ions that a name gives are not always drawn.
# What was measured:
# Type in all cases: biochemical
# Human Tyk2 kinase domain = biological target: T1, Human Tyk2 kinase domain (Homo sapiens, UniProt P29597); assay: Tyk2 Inhibition Assay (Omnia kinase fluorescence peptide substrate assay); conditions: averaged IC50 ranges; assay of Example A; 10 μM (Km app) or 1 mM ATP, 2 nM Tyk2
# T1 construct: comprising amino acids 886 to 1187 with 10 additional histidine residues; 10xHis (histidine tag) (C, cleaved yes); made in house
# T1 sequence (P29597 886-1187): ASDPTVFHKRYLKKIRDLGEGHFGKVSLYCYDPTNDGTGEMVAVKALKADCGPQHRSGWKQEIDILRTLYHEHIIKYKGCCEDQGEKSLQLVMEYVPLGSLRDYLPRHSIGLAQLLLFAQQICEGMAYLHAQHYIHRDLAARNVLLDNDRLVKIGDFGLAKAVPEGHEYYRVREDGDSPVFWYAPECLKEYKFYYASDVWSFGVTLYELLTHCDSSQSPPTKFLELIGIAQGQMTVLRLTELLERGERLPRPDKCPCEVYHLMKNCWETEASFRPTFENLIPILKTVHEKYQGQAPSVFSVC
# How it was run: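 2 nM His-tag-cleaved kinase domain (aa 886–1187) with 8 μM Omnia Y12 peptide, 10 μM (Km app) or 1 mM ATP, pH 7.4 HEPES/10 mM MgCl2, 2% DMSO. Fluorescence (ex 360/em 485 nm) every 50 s for 45 min; IC50 from 4-parameter fit of POC, top dose 10 μM.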
# JAK1 = biological target: T2, JAK1 (Homo sapiens, UniProt P23458); assay: JAK1 Inhibition Assay (Omnia kinase fluorescence peptide substrate assay); conditions: averaged IC50 ranges; assay of Example B; 40 μM (Km app) or 1 mM ATP, 15 nM JAK1
# T2 construct: purchased Invitrogen Corporation, Carlsbad, Calif; PV4775
# JAK2 = biological target: T3, JAK2 (Homo sapiens, UniProt O60674); assay: JAK2 Inhibition Assay (Omnia kinase fluorescence peptide substrate assay); conditions: averaged IC50 ranges; assay of Example C; 25 μM (Km app) or 1 mM ATP, 5 nM JAK2
# T3 construct: purchased Invitrogen Corporation, Carlsbad, Calif; PV4288
# How it was run: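 5 nM JAK2 phosphorylated 10 μM Omnia Y7 peptide with ATP at 25 μM (Km app) or 1 mM, in 25 mM HEPES pH 7.4, 10 mM MgCl2, 0.01% Triton X-100, 1 mM DTT, 2% DMSO. Fluorescence (360/485 nm) was read every 50 s for 45 min. 10-point 3-fold series from 10 μM; POC versus uninhibited and background controls, 4-parameter logistic IC50.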
# JAK3 = biological target: T4, JAK3 (Homo sapiens, UniProt P52333); assay: JAK3 Inhibition Assay (Omnia kinase fluorescence peptide substrate assay); conditions: averaged IC50 ranges; assay of Example D; 10 μM (Km app) or 1 mM ATP, 2.5 nM JAK3
# T4 construct: purchased Invitrogen Corporation, Carlsbad, Calif; PV4080
# T4 sequence (P52333 1-1124): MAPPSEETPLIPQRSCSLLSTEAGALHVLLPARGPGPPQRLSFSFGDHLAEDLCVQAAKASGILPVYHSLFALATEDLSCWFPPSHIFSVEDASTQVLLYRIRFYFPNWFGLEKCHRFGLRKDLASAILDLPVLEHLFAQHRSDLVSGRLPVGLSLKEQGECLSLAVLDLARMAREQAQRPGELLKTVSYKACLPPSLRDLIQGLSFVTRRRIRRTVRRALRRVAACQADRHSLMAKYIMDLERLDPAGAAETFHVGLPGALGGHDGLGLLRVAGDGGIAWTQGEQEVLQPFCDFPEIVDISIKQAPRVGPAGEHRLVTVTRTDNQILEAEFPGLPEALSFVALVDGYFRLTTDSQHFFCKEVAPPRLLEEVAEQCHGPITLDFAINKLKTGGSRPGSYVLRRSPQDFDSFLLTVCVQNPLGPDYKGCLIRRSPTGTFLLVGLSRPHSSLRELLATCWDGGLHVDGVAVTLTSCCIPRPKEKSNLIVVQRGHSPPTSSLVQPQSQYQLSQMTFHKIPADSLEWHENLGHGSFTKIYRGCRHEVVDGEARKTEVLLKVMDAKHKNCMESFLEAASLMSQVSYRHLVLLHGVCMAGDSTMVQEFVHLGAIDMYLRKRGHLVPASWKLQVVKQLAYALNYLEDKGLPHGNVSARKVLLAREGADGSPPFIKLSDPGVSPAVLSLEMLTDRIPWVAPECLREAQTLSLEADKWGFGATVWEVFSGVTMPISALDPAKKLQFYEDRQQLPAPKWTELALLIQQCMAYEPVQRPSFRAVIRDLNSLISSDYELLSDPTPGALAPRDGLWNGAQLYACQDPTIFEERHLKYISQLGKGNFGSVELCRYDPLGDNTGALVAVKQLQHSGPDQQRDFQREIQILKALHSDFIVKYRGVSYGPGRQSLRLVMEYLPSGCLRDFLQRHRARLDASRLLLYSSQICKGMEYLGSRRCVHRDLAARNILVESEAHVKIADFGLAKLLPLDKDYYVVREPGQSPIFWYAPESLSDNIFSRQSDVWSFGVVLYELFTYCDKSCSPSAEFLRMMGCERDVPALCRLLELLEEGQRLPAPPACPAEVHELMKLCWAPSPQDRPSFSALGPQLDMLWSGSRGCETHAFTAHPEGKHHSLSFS
# How it was run: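 Kinase at 2.5 nM with 10 µM Omnia Y7 peptide and 10 µM (Km app) or 1 mM ATP in 25 mM HEPES pH 7.4, 10 mM MgCl2, 1 mM DTT, 0.01% Triton X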
# T3 sequence (O60674 whole entry): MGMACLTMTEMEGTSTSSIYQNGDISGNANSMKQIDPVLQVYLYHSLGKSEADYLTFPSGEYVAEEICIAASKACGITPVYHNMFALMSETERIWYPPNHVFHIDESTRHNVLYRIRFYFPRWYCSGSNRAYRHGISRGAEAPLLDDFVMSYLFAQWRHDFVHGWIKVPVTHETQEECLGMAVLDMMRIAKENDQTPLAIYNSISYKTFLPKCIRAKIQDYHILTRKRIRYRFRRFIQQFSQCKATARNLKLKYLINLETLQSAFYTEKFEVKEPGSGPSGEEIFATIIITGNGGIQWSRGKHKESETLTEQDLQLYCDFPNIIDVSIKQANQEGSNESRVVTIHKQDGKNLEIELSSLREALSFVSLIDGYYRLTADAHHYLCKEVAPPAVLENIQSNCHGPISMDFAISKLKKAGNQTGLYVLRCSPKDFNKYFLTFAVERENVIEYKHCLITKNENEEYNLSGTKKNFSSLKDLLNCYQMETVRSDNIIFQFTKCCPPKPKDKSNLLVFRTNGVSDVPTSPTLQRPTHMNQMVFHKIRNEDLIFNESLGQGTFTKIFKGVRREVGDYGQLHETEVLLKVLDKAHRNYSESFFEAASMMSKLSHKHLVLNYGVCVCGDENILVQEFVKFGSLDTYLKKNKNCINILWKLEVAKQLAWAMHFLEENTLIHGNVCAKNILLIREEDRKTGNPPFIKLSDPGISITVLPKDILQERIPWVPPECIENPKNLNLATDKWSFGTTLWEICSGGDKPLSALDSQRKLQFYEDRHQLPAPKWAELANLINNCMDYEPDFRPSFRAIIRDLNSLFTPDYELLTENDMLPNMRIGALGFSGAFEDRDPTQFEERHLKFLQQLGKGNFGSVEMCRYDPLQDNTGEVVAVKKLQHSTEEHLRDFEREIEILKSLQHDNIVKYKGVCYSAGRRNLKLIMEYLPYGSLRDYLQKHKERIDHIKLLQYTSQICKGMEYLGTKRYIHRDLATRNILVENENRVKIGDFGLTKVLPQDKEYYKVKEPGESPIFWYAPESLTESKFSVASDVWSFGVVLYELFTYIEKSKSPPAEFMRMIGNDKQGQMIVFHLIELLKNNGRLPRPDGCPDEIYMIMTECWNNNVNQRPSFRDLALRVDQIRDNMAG
# T2 sequence (P23458 whole entry): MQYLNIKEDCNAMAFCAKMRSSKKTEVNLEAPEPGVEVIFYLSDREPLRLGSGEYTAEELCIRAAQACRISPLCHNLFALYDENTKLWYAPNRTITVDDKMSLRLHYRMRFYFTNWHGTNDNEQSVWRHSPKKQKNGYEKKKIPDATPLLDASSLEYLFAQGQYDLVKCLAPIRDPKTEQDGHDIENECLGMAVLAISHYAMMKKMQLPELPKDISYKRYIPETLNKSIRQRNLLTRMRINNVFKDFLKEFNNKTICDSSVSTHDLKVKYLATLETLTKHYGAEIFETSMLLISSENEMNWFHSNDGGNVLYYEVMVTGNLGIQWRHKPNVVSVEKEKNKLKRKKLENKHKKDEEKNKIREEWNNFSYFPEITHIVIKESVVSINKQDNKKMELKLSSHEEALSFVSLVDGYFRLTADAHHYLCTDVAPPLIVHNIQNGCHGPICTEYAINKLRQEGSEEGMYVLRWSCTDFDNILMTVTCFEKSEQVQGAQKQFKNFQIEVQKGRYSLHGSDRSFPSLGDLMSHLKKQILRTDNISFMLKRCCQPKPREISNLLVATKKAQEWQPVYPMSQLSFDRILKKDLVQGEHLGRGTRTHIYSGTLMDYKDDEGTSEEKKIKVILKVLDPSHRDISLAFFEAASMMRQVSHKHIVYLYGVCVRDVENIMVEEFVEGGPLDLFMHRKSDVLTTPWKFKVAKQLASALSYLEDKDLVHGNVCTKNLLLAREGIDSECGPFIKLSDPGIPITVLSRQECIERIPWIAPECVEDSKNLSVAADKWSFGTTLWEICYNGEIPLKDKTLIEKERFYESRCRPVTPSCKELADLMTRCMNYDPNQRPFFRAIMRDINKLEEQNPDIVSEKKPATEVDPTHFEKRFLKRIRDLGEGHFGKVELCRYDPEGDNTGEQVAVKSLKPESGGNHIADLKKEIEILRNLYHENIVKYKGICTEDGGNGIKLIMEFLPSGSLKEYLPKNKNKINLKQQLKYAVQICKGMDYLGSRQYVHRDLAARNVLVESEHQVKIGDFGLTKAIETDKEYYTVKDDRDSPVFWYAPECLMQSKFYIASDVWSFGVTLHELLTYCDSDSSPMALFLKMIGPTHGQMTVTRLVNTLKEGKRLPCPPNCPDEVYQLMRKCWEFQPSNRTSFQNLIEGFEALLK
Structure (SMILES),IC50 (Human Tyk2 kinase domain),IC50 (JAK1),IC50 (JAK2),IC50 (JAK3)
"N#CCC(C1CC1)n1cc(-c2nc(-c3cnc4n3CCNC4)cc3nccn23)cn1 (stereo not shown) [Example 56, 3-Cyclopropyl-3-(4-(7-(5,6,7,8-tetrahydroimidazo[1,2-a]pyrazin-3-yl)imidazo[1,2-c]pyrimidin-5-yl)-1H-pyrazol-1-yl)propanenitrile]",100 to 1000 nM,> 1000 nM,100 to 1000 nM,> 1000 nM
"CN1CCn2c(-c3cc4nccn4c(-c4cnn(C(CC#N)C5CC5)c4)n3)cnc2C1 (stereo not shown) [Example 57, 3-cyclopropyl-3-(4-(7-(7-methyl-5,6,7,8-tetrahydroimidazo[1,2-a]pyrazin-3-yl)imidazo[1,2-c]pyrimidin-5-yl)-1H-pyrazol-1-yl)propanenitrile]",10 to 100 nM,100 to 1000 nM,100 to 1000 nM,> 1000 nM
"N#CCC(C1CC1)n1cc(-c2nc(-c3ccc(N4CC5CCC(C4)O5)cc3)cc3nccn23)cn1 (stereo not shown) [Example 58, 3-(4-(7-(4-(8-Oxa-3-azabicyclo[3.2.1]octan-3-yl)phenyl)imidazo[1,2-c]pyrimidin-5-yl)-1H-pyrazol-1-yl)-3-cyclopropylpropanenitrile]",< 10 nM,10 to 100 nM,10 to 100 nM,100 to 1000 nM
"CN1CCN(c2ccc(-c3cc4nccn4c(-c4cnn(C(CC#N)C5CC5)c4)n3)cc2)CC1 (stereo not shown) [Example 59, 3-Cyclopropyl-3-(4-(7-(4-(4-methylpiperazin-1-yl)phenyl)imidazo[1,2-c]pyrimidin-5-yl)-1H-pyrazol-1-yl)propanenitrile]",< 10 nM,10 to 100 nM,10 to 100 nM,100 to 1000 nM
"Cn1cc(-c2cc3nccn3c(-c3cnn(C4(CC#N)CN(C(=O)OC(C)(C)C)C4)c3)n2)cn1 [Example 61, Tert-butyl 3-(cyanomethyl)-3-(4-(7-(1-methyl-1H-pyrazol-4-yl)imidazo[1,2-c]pyrimidin-5-yl)-1H-pyrazol-1-yl)azetidine-1-carboxylate]",100 to 1000 nM,> 1000 nM,100 to 1000 nM,> 1000 nM
"Cn1cc(-c2cc3nccn3c(-c3cnn(C4(CC#N)CNC4)c3)n2)cn1 [Example 62, 2-(3-(4-(7-(1-Methyl-1H-pyrazol-4-yl)imidazo[1,2-c]pyrimidin-5-yl)-1H-pyrazol-1-yl)azetidin-3-yl)acetonitrile hydrochloride]",100 to 1000 nM,> 1000 nM,> 1000 nM,> 1000 nM
"CC(=O)N1CC(CC#N)(n2cc(-c3nc(-c4cnn(C)c4)cc4nccn34)cn2)C1 [Example 63, 2-(1-Acetyl-3-(4-(7-(1-methyl-1H-pyrazol-4-yl)imidazo[1,2-c]pyrimidin-5-yl)-1H-pyrazol-1-yl)azetidin-3-yl)acetonitrile]",100 to 1000 nM,> 1000 nM,> 1000 nM,> 1000 nM
"Cn1cc(-c2cc3nccn3c(-c3cnn(C4(CC#N)CN(C(=O)CC(F)(F)F)C4)c3)n2)cn1 [Example 64, 2-(3-(4-(7-(1-Methyl-1H-pyrazol-4-yl)imidazo[1,2-c]pyrimidin-5-yl)-1H-pyrazol-1-yl)-1-(3,3,3-trifluoropropanoyl)azetidin-3-yl)acetonitrile]",10 to 100 nM,100 to 1000 nM,10 to 100 nM,100 to 1000 nM

# The remaining lines, values ahead:
IC50 (Human Tyk2 kinase domain),IC50 (JAK1),IC50 (JAK2),IC50 (JAK3),Structure (SMILES)
10 to 100 nM,100 to 1000 nM,100 to 1000 nM,> 1000 nM,"Cc1ccc(-c2cc3nccn3c(-c3cnn(C(CC#N)C4CC4)c3)n2)cn1 (stereo not shown) [Example 49, 3-Cyclopropyl-3-(4-(7-(6-methylpyridin-3-yl)imidazo[1,2-c]pyrimidin-5-yl)-1H-pyrazol-1-yl)propanenitrile]"
10 to 100 nM,100 to 1000 nM,100 to 1000 nM,> 1000 nM,"Cc1cc(-c2cc3nccn3c(-c3cnn(C(CC#N)C4CC4)c3)n2)ccn1 (stereo not shown) [Example 50, 3-cyclopropyl-3-(4-(7-(2-methylpyridin-4-yl)imidazo[1,2-c]pyrimidin-5-yl)-1H-pyrazol-1-yl)propanenitrile]"
< 10 nM,100 to 1000 nM,10 to 100 nM,100 to 1000 nM,"CN1CCN(c2ccc(-c3cc4nccn4c(-c4cnn(C(CC#N)C5CC5)c4)n3)cn2)CC1 (stereo not shown) [Example 51, 3-cyclopropyl-3-(4-(7-(6-(4-methylpiperazin-1-yl)pyridin-3-yl)imidazo[1,2-c]pyrimidin-5-yl)-1H-pyrazol-1-yl)propanenitrile]"
10 to 100 nM,10 to 100 nM,10 to 100 nM,100 to 1000 nM,"N#CCC(C1CC1)n1cc(-c2nc(-c3ccc4c(c3)CCNC4)cc3nccn23)cn1 (stereo not shown) [Example 52, 3-Cyclopropyl-3-(4-(7-(1,2,3,4-tetrahydroisoquinolin-6-yl)imidazo[1,2-c]pyrimidin-5-yl)-1H-pyrazol-1-yl)propanenitrile]"
10 to 100 nM,10 to 100 nM,10 to 100 nM,100 to 1000 nM,"CN1CCc2cc(-c3cc4nccn4c(-c4cnn(C(CC#N)C5CC5)c4)n3)ccc2C1 (stereo not shown) [Example 53, 3-Cyclopropyl-3-(4-(7-(2-methyl-1,2,3,4-tetrahydroisoquinolin-6-yl)imidazo[1,2-c]pyrimidin-5-yl)-1H-pyrazol-1-yl)propanenitrile]"
< 10 nM,10 to 100 nM,10 to 100 nM,100 to 1000 nM,"N#CCC(C1CC1)n1cc(-c2nc(-c3ccc4c(c3)CNCC4)cc3nccn23)cn1 (stereo not shown) [Example 54, 3-Cyclopropyl-3-(4-(7-(1,2,3,4-tetrahydroisoquinolin-7-yl)imidazo[1,2-c]pyrimidin-5-yl)-1H-pyrazol-1-yl)propanenitrile]"
10 to 100 nM,10 to 100 nM,10 to 100 nM,100 to 1000 nM,"CN1CCc2ccc(-c3cc4nccn4c(-c4cnn(C(CC#N)C5CC5)c4)n3)cc2C1 (stereo not shown) [Example 55, 3-Cyclopropyl-3-(4-(7-(2-methyl-1,2,3,4-tetrahydroisoquinolin-7-yl)imidazo[1,2-c]pyrimidin-5-yl)-1H-pyrazol-1-yl)propanenitrile]"
< 10 nM,10 to 100 nM,10 to 100 nM,100 to 1000 nM,"Cn1cc(-c2ccc(-c3cc4nccn4c(-c4cnn(C(CC#N)C5CC5)c4)n3)cc2)cn1 (stereo not shown) [Example 60, 3-Cyclopropyl-3 (4 (7 (4 (1 methyl-1H-pyrazol-4-yl)phenyl)imidazo[1,2-c]pyrimidin-5-yl)-1H-pyrazol-1-yl)propanenitrile]"
